Experimental data taken from patent US20060008491A1, “Eremophilone and eremophilone derivatives for pest control” (priority 2002, published 2006).

Test system: Coptotermes acinaciformis
Type: in vivo
Conditions: HPLC fractions of steam distilled oil
Protocol: A number of samples were assessed for termiticidal activity. The steam distilled oil product was separated into thirty fractions using reverse phase preparative HPLC, methanol:water (80:20). Fractions were re-analysed by GC-MS and recombined to provide eight fractions. Three fractions contained pure components, the other fractions contained mixtures of minor components of the oil. Six fractions together with the whole oil distillate, and the methanol and hexane extracts were tested on the workers of the termites Nasutitermes walkeri and Coptotermes acinaciformis as follows.
Twenty uniform termite workers were transferred to 90 mm diam. petri dishes lined with the same diameter moistened filter paper (Whatman No 2). […]
A 5 ml aliquot was applied to each petri dish with a Potter precision spray tower as described by Herron et al (995). The average weight of the solution sprayed on each dish was calculated to be 3.95 mg/cm^2. […] Mortality was normally recorded 24 h after treatment. […] Probit analysis was carried out for dose-mortality data and heterogeneity of regressions was determined by the Pearson chi-squared characteristic.

C=C(C)[C@@H]1CC(=O)C2=CCC[C@H](C)[C@@]2(C)C1 [EM-1, Eremophilone]
termiticidal activity: significant termiticidal activity
